Data: PubChem BioAssay AID256 (DTP/NCI, 2004)
Toxic doses and inconclusive results are not listed.

Test system: CD2F1 mice, L1210 leukemia ip, survival T/C
Experiment: NCI In Vivo Anticancer Drug Screen. Data for tumor model L1210 Leukemia (intraperitoneal) in CD2F1 (CDF1) mice
Conditions: higher = longer survival
How it was run: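 Read-out first: treated-group measurement over vehicle-control measurement, expressed as a ratio. Animals bore a transplanted tumor line and were dosed with compound or vehicle.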

[1] = endpoint: mean survival time, dose: 100.0 mg/kg/injection, schedule: Q04DX003 (ip), vehicle: saline with Tween-80
[2] = endpoint: mean survival time, dose: 200.0 mg/kg/injection, schedule: Q04DX003 (ip), vehicle: saline with Tween-80
[3] = endpoint: mean survival time, dose: 400.0 mg/kg/injection, schedule: Q04DX003 (ip), vehicle: saline with Tween-80
[4] = endpoint: mean survival time, dose: 75.0 mg/kg/injection, schedule: Q01DX001 (ip), vehicle: saline
[5] = endpoint: mean survival time, dose: 25.0 mg/kg/injection, schedule: Q01DX009 (ip), vehicle: saline
[6] = endpoint: mean survival time, dose: 100.0 mg/kg/injection, schedule: Q01DX009 (ip), vehicle: Klucel (hydroxypropylcellulose) (HPC)
[7] = endpoint: mean survival time, dose: 200.0 mg/kg/injection, schedule: Q01DX009 (ip), vehicle: Klucel (hydroxypropylcellulose) (HPC)
[8] = endpoint: mean survival time, dose: 400.0 mg/kg/injection, schedule: Q01DX009 (ip), vehicle: Klucel (hydroxypropylcellulose) (HPC)

Structure (SMILES): N.N.N.N.O=C(O)C1OCCOCCOC(C(=O)O)C(C(=O)O)OCCOCCOC1C(=O)O.[Pt+2].[Pt+2] (configuration not stated)
- T/C (endpoint: median survival time, dose: 0.39 mg/kg/injection, schedule: Q04DX003 (ip), vehicle: saline with Tween-80): 100 % of control
- T/C (endpoint: median survival time, dose: 0.62 mg/kg/injection, schedule: Q04DX003 (ip), vehicle: saline): 98 % of control
- T/C (endpoint: median survival time, dose: 0.78 mg/kg/injection, schedule: Q04DX003 (ip), vehicle: saline with Tween-80): 107 % of control
- T/C (endpoint: median survival time, dose: 0.78 mg/kg/injection, schedule: Q04DX003 (ip), vehicle: saline): 100 % of control
- T/C (endpoint: median survival time, dose: 1.25 mg/kg/injection, schedule: Q04DX003 (ip), vehicle: saline): 98 % of control
- T/C (endpoint: median survival time, dose: 1.56 mg/kg/injection, schedule: Q04DX003 (ip), vehicle: saline with Tween-80): 107 % of control
- T/C (endpoint: median survival time, dose: 1.56 mg/kg/injection, schedule: Q04DX003 (ip), vehicle: saline): 101 % of control
- T/C (endpoint: median survival time, dose: 2.5 mg/kg/injection, schedule: Q04DX003 (ip), vehicle: saline): 98 % of control
- T/C (endpoint: median survival time, dose: 3.12 mg/kg/injection, schedule: Q04DX003 (ip), vehicle: saline with Tween-80): 110 % of control
- T/C (endpoint: median survival time, dose: 3.12 mg/kg/injection, schedule: Q04DX003 (ip), vehicle: saline): 107 % of control
- T/C (endpoint: median survival time, dose: 5.0 mg/kg/injection, schedule: Q04DX003 (ip), vehicle: saline): 102 % of control
- T/C (endpoint: median survival time, dose: 6.25 mg/kg/injection, schedule: Q04DX003 (ip), vehicle: saline with Tween-80): 118 % of control
- T/C (endpoint: median survival time, dose: 6.25 mg/kg/injection, schedule: Q04DX003 (ip), vehicle: saline): 103 % of control
- T/C (endpoint: median survival time, dose: 10.0 mg/kg/injection, schedule: Q04DX003 (ip), vehicle: saline): 111 % of control
- T/C (endpoint: median survival time, dose: 12.5 mg/kg/injection, schedule: Q04DX003 (ip), vehicle: saline): 107 % of control
- T/C (endpoint: median survival time, dose: 20.0 mg/kg/injection, schedule: Q04DX003 (ip), vehicle: saline): 111 % of control
- T/C (endpoint: median survival time, dose: 25.0 mg/kg/injection, schedule: Q04DX003 (ip), vehicle: saline with Tween-80): 167 % of control
- T/C (endpoint: median survival time, dose: 25.0 mg/kg/injection, schedule: Q04DX003 (ip), vehicle: saline): 123 % of control

Structure (SMILES): CC(N)(CCO)C(=O)O (configuration not stated)
- T/C (endpoint: mean survival time, dose: 100.0 mg/kg/injection, schedule: Q01DX009 (ip), vehicle: saline sonified): 97 % of control
- T/C [1]: 101 % of control
- T/C (endpoint: mean survival time, dose: 200.0 mg/kg/injection, schedule: Q01DX009 (ip), vehicle: saline sonified): 104 % of control
- T/C [2]: 101 % of control
- T/C (endpoint: mean survival time, dose: 400.0 mg/kg/injection, schedule: Q01DX009 (ip), vehicle: saline sonified): 103 % of control
- T/C [3]: 98 % of control

Structure (SMILES): CN1CCCC(OC(=O)C(c2ccccc2)C2(O)CCCC2)C1 (configuration not stated)
- T/C [4]: 98 % of control

Structure (SMILES): CSc1ccc(OC(=O)Nc2ccc(C)c([N+](=O)[O-])c2)cc1C
- T/C [1]: 92 % of control
- T/C [2]: 92 % of control
- T/C [3]: 96 % of control

Structure (SMILES): C1CCN(P(N2CCCCC2)N2CCCCC2)CC1
- T/C (endpoint: mean survival time, dose: 100.0 mg/kg/injection, schedule: Q04DX002 (ip), vehicle: saline): 92 % of control
- T/C (endpoint: mean survival time, dose: 200.0 mg/kg/injection, schedule: Q04DX002 (ip), vehicle: saline): 92 % of control

Structure (SMILES): CC(=O)OC(c1ccccc1)(c1ccccc1)c1ccncc1
- T/C (endpoint: mean survival time, dose: 100.0 mg/kg/injection, schedule: Q04DX003 (ip), vehicle: other): 93 % of control
- T/C (endpoint: mean survival time, dose: 200.0 mg/kg/injection, schedule: Q04DX003 (ip), vehicle: other): 89 % of control
- T/C (endpoint: mean survival time, dose: 400.0 mg/kg/injection, schedule: Q04DX003 (ip), vehicle: other): 93 % of control

Structure (SMILES): COC(=O)C(CCSC)NC(=O)C(C)NC(=O)OCc1ccccc1 (configuration not stated)
- T/C (endpoint: mean survival time, dose: 100.0 mg/kg/injection, schedule: Q01DX009 (ip), vehicle: saline with Tween-80): 98 % of control
- T/C (endpoint: mean survival time, dose: 200.0 mg/kg/injection, schedule: Q01DX009 (ip), vehicle: saline with Tween-80): 95 % of control
- T/C (endpoint: mean survival time, dose: 400.0 mg/kg/injection, schedule: Q01DX009 (ip), vehicle: saline with Tween-80): 95 % of control

Structure (SMILES): Cc1cccc(NC(=O)C2CCC(C)(C(=O)O)C2(C)C)c1 (configuration not stated)
- T/C [1]: 94 % of control
- T/C [2]: 90 % of control

Structure (SMILES): NC(CCC(=O)NC(CSC(c1ccccc1)(c1ccccc1)c1ccc(F)cc1)C(=O)NCC(=O)O)C(=O)O (configuration not stated)
- T/C [5]: 120 % of control
- T/C (endpoint: mean survival time, dose: 200.0 mg/kg/injection, schedule: Q01DX009 (ip), vehicle: saline): 150 % of control

Structure (SMILES): On1ccnc2nncc1-2
- T/C (endpoint: mean survival time, dose: 11.3 mg/kg/injection, schedule: Q01DX005 (ip), vehicle: other): 104 % of control
- T/C (endpoint: mean survival time, dose: 22.5 mg/kg/injection, schedule: Q01DX005 (ip), vehicle: other): 104 % of control
- T/C (endpoint: mean survival time, dose: 45.0 mg/kg/injection, schedule: Q01DX005 (ip), vehicle: other): 101 % of control
- T/C (endpoint: mean survival time, dose: 90.0 mg/kg/injection, schedule: Q01DX005 (ip), vehicle: other): 97 % of control
- T/C (endpoint: mean survival time, dose: 180.0 mg/kg/injection, schedule: Q01DX005 (ip), vehicle: other): 93 % of control
- T/C (endpoint: mean survival time, dose: 200.0 mg/kg/injection, schedule: Q01DX005 (ip), vehicle: other): 102 % of control
- T/C (endpoint: mean survival time, dose: 400.0 mg/kg/injection, schedule: Q01DX005 (ip), vehicle: other): 106 % of control

Structure (SMILES): CC(=O)CC(C)=O.CC(=O)CC(C)=O.CC(=O)CC(C)=O.[Fe]
- T/C (endpoint: mean survival time, dose: 6.25 mg/kg/injection, schedule: Q01DX009 (ip), vehicle: saline with Tween-80): 93 % of control
- T/C (endpoint: mean survival time, dose: 12.5 mg/kg/injection, schedule: Q01DX009 (ip), vehicle: saline with Tween-80): 97 % of control
- T/C (endpoint: mean survival time, dose: 12.5 mg/kg/injection, schedule: Q04DX003 (ip), vehicle: saline with Tween-80): 102 % of control
- T/C (endpoint: mean survival time, dose: 25.0 mg/kg/injection, schedule: Q04DX003 (ip), vehicle: saline with Tween-80): 98 % of control

Structure (SMILES): O=S(=O)(O)SNCCN1CCOCC1
- T/C (endpoint: mean survival time, dose: 6.25 mg/kg/injection, schedule: Q01DX009 (ip), vehicle: saline): 106 % of control
- T/C (endpoint: mean survival time, dose: 6.25 mg/kg/injection, schedule: Q04DX003 (ip), vehicle: saline): 104 % of control
- T/C (endpoint: mean survival time, dose: 12.5 mg/kg/injection, schedule: Q01DX009 (ip), vehicle: saline): 98 % of control
- T/C (endpoint: mean survival time, dose: 12.5 mg/kg/injection, schedule: Q04DX003 (ip), vehicle: saline): 102 % of control
- T/C [5]: 107 % of control
- T/C (endpoint: mean survival time, dose: 25.0 mg/kg/injection, schedule: Q04DX003 (ip), vehicle: saline): 101 % of control

Structure (SMILES): Cc1ccc(Nc2nc(N)nc(N)c2N=O)cc1C
- T/C (endpoint: mean survival time, dose: 50.0 mg/kg/injection, schedule: Q01DX001 (ip), vehicle: Klucel (hydroxypropylcellulose) (HPC)): 90 % of control
- T/C (endpoint: mean survival time, dose: 100.0 mg/kg/injection, schedule: Q01DX001 (ip), vehicle: Klucel (hydroxypropylcellulose) (HPC)): 87 % of control
- T/C (endpoint: mean survival time, dose: 200.0 mg/kg/injection, schedule: Q01DX001 (ip), vehicle: Klucel (hydroxypropylcellulose) (HPC)): 98 % of control

Structure (SMILES): CCCCCCCCCCCCCCCC(=O)Nc1c(C)cc(C)cc1C
- T/C (endpoint: mean survival time, dose: 100.0 mg/kg/injection, schedule: Q04DX002 (ip), vehicle: saline with Tween-80): 103 % of control
- T/C (endpoint: mean survival time, dose: 200.0 mg/kg/injection, schedule: Q04DX002 (ip), vehicle: saline with Tween-80): 111 % of control
- T/C (endpoint: mean survival time, dose: 400.0 mg/kg/injection, schedule: Q04DX002 (ip), vehicle: saline with Tween-80): 91 % of control

Structure (SMILES): NNC(=O)c1cc(Cl)cc(C(=O)NN)n1
- T/C (endpoint: mean survival time, dose: 50.0 mg/kg/injection, schedule: Q01DX009 (ip), vehicle: saline with Tween-80): 97 % of control

Structure (SMILES): COC(=O)C(CSCSCc1ccccc1)NC(=O)C(CSCc1ccccc1)NC(=O)CCNC(=O)OCc1ccccc1 (configuration not stated)
- T/C (endpoint: mean survival time, dose: 25.0 mg/kg/injection, schedule: Q01DX009 (ip), vehicle: Klucel (hydroxypropylcellulose) (HPC)): 96 % of control
- T/C (endpoint: mean survival time, dose: 50.0 mg/kg/injection, schedule: Q01DX009 (ip), vehicle: Klucel (hydroxypropylcellulose) (HPC)): 93 % of control
- T/C [6]: 88 % of control
- T/C [7]: 93 % of control
- T/C [8]: 90 % of control

Structure (SMILES): COc1ccc(O)cc1
- T/C (endpoint: median survival time, dose: 12.5 mg/kg/injection, schedule: Q01DX005 (ip), vehicle: saline with Tween-80): 98 % of control
- T/C (endpoint: median survival time, dose: 25.0 mg/kg/injection, schedule: Q01DX005 (ip), vehicle: saline with Tween-80): 98 % of control
- T/C (endpoint: median survival time, dose: 50.0 mg/kg/injection, schedule: Q01DX005 (ip), vehicle: saline with Tween-80): 95 % of control
- T/C (endpoint: median survival time, dose: 100.0 mg/kg/injection, schedule: Q01DX005 (ip), vehicle: saline with Tween-80): 103 % of control
- T/C (endpoint: median survival time, dose: 200.0 mg/kg/injection, schedule: Q01DX005 (ip), vehicle: saline with Tween-80): 116 % of control

Structure (SMILES): C=COC(=O)NC(CC(C)C)C(=O)O (configuration not stated)
- T/C [4]: 103 % of control
- T/C (endpoint: mean survival time, dose: 150.0 mg/kg/injection, schedule: Q01DX001 (ip), vehicle: saline): 101 % of control

Structure (SMILES): Cc1cc(C2(c3ccc(O)c(C)c3)CCCCC2)ccc1O
- T/C (endpoint: mean survival time, dose: 100.0 mg/kg/injection, schedule: Q01DX001 (ip), vehicle: saline with Tween-80): 97 % of control
- T/C [6]: 95 % of control
- T/C (endpoint: mean survival time, dose: 200.0 mg/kg/injection, schedule: Q01DX001 (ip), vehicle: saline with Tween-80): 94 % of control
- T/C [7]: 94 % of control
- T/C (endpoint: mean survival time, dose: 400.0 mg/kg/injection, schedule: Q01DX001 (ip), vehicle: saline with Tween-80): 96 % of control
- T/C [8]: 94 % of control
